Test results from patent US20050107353A1, “Methods of treating lower urinary tract disorders using losigamone” (Dynogen Pharmaceuticals, Inc., priority 2003, published 2005).
“Also recorded” adds a separate entry of the source.

Columns and labels:
[1] = system: activity dependent sodium currents in bladder DRG neurons; assay: Use-dependent effect on sodium currents in bladder DRG neurons, slow versus fast stimulation; format: cell-based, rat; conditions: 100 μM, steps from −50 to 0 mV, three neurons
Procedure: Labeling of bladder afferent neurons: Adult female Sprague-Dawley rats (150-300 g) were deeply anesthetized with pentobarbital anesthesia and placed on isoflurane maintenance anesthesia. A ventral midline incision was made through the abdominal skin and musculature, exposing the urinary bladder. Five injections of the fluorescent dye Di-I (5 μl each of 25 mg/ml Di-I in DMSO) or Fast Blue (4% w/v) were made into the bladder smooth muscle wall to label primary afferent fibers innervating the bladder. The area was rinsed with sterile saline to eliminate nonspecific spread of dye, and the incision was closed. Rats recovered for 5-12 days to allow for transport of fluorescent dye from distal terminals to the cell somata of dorsal root ganglion (DRG) neurons. Labeled neurons were identified in vitro using fluorescence optics. […]
Sodium currents were recorded from DRG neurons using standard electrophysiologic protocols. […] Currents were recorded using a patch-clamp amplifier and digitized at 3-10 kHz for acquisition. Neuronal input resistance and membrane capacitance were determined from the amplitude and kinetics of the current response to a voltage pulse from a holding potential of −50 mV. […] For all cell types, baseline responses were recorded for a minimum of 10 min to ensure that the kinetics of the response was stable. […]

[2] = molecular target: T1, TTX-R sodium currents in bladder afferent neurons (Rattus norvegicus, UniProt Q62968); assay: Bladder sensory neuron sodium channel current model: whole cell patch-clamp of TTX-R sodium currents; format: cell-based
T1 construct: Whole cell patch-clamp recordings were obtained from dye-labeled DRG neurons; endogenous in cells; host or cells: primary dissociated L6/S1 dorsal root ganglion neurons of Sprague-Dawley rats, dye-labelled bladder afferents
T1 sequence (Q62968 whole entry): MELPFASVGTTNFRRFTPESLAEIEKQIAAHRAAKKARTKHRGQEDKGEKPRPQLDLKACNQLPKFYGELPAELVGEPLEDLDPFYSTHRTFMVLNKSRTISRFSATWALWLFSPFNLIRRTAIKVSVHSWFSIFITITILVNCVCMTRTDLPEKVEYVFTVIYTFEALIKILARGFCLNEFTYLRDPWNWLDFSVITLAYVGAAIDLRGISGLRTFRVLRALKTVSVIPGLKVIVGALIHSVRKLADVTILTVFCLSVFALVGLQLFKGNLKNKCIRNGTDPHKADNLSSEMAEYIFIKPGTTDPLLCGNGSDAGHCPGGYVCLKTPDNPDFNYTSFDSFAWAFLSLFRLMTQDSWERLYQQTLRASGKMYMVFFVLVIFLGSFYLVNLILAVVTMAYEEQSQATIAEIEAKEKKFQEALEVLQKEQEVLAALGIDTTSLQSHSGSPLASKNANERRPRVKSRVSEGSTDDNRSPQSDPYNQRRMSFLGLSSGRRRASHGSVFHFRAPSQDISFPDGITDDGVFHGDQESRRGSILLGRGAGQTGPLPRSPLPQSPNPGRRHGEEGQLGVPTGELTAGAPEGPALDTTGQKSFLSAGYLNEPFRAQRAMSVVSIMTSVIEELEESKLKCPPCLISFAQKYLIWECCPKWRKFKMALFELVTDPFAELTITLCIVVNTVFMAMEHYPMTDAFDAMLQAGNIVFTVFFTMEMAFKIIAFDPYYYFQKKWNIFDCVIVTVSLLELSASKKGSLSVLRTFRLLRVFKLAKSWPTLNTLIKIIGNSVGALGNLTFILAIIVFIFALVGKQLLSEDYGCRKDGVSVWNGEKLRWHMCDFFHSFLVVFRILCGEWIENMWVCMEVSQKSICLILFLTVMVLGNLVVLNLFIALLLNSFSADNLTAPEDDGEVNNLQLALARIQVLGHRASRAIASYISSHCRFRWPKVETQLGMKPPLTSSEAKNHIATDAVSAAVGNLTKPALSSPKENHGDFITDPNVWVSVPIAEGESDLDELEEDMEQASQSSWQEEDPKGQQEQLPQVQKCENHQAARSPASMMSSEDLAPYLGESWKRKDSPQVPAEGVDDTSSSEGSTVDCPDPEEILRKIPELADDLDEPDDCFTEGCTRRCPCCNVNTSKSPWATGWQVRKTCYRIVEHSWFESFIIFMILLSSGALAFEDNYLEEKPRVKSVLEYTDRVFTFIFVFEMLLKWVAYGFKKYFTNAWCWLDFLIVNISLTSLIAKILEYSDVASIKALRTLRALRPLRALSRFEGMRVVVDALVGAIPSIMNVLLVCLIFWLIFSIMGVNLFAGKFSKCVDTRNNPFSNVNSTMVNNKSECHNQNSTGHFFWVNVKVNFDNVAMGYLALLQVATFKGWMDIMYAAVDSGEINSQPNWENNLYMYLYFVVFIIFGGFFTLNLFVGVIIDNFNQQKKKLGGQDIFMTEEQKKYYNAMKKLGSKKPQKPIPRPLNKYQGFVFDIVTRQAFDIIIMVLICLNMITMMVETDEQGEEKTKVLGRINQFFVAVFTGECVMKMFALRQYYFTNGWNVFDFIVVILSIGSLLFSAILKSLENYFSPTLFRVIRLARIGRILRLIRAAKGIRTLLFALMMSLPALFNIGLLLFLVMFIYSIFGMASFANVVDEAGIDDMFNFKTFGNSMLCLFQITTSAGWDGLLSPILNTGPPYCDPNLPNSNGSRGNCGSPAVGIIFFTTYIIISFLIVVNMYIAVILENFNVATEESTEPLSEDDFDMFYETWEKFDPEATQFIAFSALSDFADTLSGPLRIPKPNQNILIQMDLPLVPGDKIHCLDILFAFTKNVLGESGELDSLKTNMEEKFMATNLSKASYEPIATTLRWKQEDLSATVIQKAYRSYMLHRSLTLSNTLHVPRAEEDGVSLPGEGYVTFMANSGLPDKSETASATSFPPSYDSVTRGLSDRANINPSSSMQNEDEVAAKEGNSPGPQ
Procedure: Labeling of bladder afferent neurons: Adult female Sprague-Dawley rats (150-300 g) were deeply anesthetized with pentobarbital anesthesia and placed on isoflurane maintenance anesthesia. A ventral midline incision was made through the abdominal skin and musculature, exposing the urinary bladder. Five injections of the fluorescent dye Di-I (5 μl each of 25 mg/ml Di-I in DMSO) or Fast Blue (4% w/v) were made into the bladder smooth muscle wall to label primary afferent fibers innervating the bladder. The area was rinsed with sterile saline to eliminate nonspecific spread of dye, and the incision was closed. Rats recovered for 5-12 days to allow for transport of fluorescent dye from distal terminals to the cell somata of dorsal root ganglion (DRG) neurons. Labeled neurons were identified in vitro using fluorescence optics.
Neuronal cultures: Di-I injected rats were euthanized with pentobarbital anesthesia. Lumbar (L6) and sacral (S1) DRG were dissected from the vertebral column and placed in Dulbecco's modified Eagles medium (DMEM) containing 0.3% collagenase B for 60 min at 37° C. The cell solution was exchanged for a 0.25% trypsin in calcium/magnesium-free Dulbecco's phosphate-buffered saline solution, and further digested for 30 min at 37° C. Following a wash in fresh DMEM, ganglia were dissociated by a series of triturations using fire-polished Pasteur pipettes. DRG cells were plated on polylysine-treated glass coverslips. Cells were plated at a density of 0.5 DRG per coverslip in 1 ml DMEM supplemented with 10% FBS, NGF, and 100 U/ml penicillin/streptomycin. All experimental procedures involving rats were conducted under a protocol approved by an Institutional Animal Care and Use Committee. Small variations in the concentrations of reagents, incubation times, etc. may occur and are expected to give similar results.
In most experiments, neurons were incubated in culture medium containing the FITC-labeled lectin BSI-B4 (IB4, […]) at 37° C. for 5 min before recording. The coverslip was washed with extracellular recording solution for 1 min before being placed in a recording chamber mounted on the stage of an inverted microscope equipped with fluorescence optics.
Electrophysiology: Electrophysiologic evaluation of neurons occurred within 4-48 h of plating. Whole cell patch-clamp recordings were obtained from dye-labeled DRG neurons. Recordings were obtained in an extracellular recording solution (pH 7.4, 295-320 mosM) consisting of (in mM) 140 NaCl, 3 KCl, 1 CaCl2, 1 MgCl2, 0.1 CdCl2, 10 HEPES, and 10 glucose. Patch-clamp electrodes were pulled from borosilicate glass and fire polished to 2-6 MOhm tip resistance. The internal pipette recording solution (pH 7.3, 290-300 mosM) consisted of (in mM) 140 CsCl, 10 NaCl, 1 EGTA, and 10 HEPES. Tetrodotoxin (TTX, 0.3 uM) was included in the extracellular solution to block TTX-sensitive sodium currents. Variations in the concentrations and types of reagents used for solutions may occur and are expected to give similar results.
Sodium currents were recorded from DRG neurons using standard electrophysiologic protocols. Neurons were typically voltage-clamped at −50 mV. Currents were recorded using a patch-clamp amplifier and digitized at 3-10 kHz for acquisition. Neuronal input resistance and membrane capacitance were determined from the amplitude and kinetics of the current response to a voltage pulse from a holding potential of −50 mV. Series resistance was compensated 75-95% for all recordings. Leak currents were cancelled online using a standard P/4 protocol. Depolarizing steps from −90, −70, or −50 mV to 0 mV were delivered every 5 or 30 sec during drug application to determine the effects of drugs on sodium currents. For all cell types, baseline responses were recorded for a minimum of 10 min to ensure that the kinetics of the response was stable. A wash out or recovery period usually followed the drug application period. […]

[3] = system: acetic acid-induced reduction of bladder capacity; assay: Dilute acetic acid model: bladder capacity by filling cystometry during continuous intravesical acetic acid irritation; format: in vivo, rat; conditions: intraduodenal; for effect on bladder capacity (reversal of acetic acid-induced reduction): increasing doses, rats during continuous irritation
Excerpt: The objective of the current study was to determine the effect of TTX-R sodium channel modulators or use dependent sodium channel modulators on the ability to reverse the reduction in bladder capacity seen following continuous infusion of dilute acetic acid, a commonly used model of lower urinary tract disorders including overactive bladder.
Animal Preparation: Female rats (250-275 g BW) were anesthetized with urethane (1.2 g/kg) and a saline-filled catheter (PE-50) was inserted into either the jugular vein for intravenous (i.v.; saline vehicle) or the proximal duodenum for intraduodenal (i.d.; distilled water or 10% Tween 80 in saline as vehicle) drug administration. Via a midline lower abdominal incision, a flared-tipped PE 50 catheter was inserted into the bladder dome for bladder filling and pressure recording and secured by ligation. The abdominal cavity was moistened with saline and closed by covering with a thin plastic sheet in order to maintain access to the bladder for emptying purposes. Fine silver or stainless steel wire electrodes were inserted into the external urethral sphincter (EUS) percutaneously for electromyography (EMG).
Experimental Design: Saline was continuously infused at a rate of 0.055 ml/min via the bladder filling catheter for ≧60 minutes to obtain a baseline of lower urinary tract activity (continuous cystometry; CMG). Following the control period, a 0.25% acetic acid solution in saline was infused into the bladder at the same flow rate to induce bladder irritation. Following 30 minutes of AA infusion, 3 vehicle injections were made at 20 minute intervals to determine vehicle effects, if any. Subsequently, increasing doses (2-5) of Na^+ channel blocking compound were administered intravenously or intraduodenaly at half-log order increments at 30 or 60 minute intervals in order to construct a cumulative dose-response relationship. At the end of the control saline cystometry period, the third vehicle, and 20-50 minutes following each subsequent treatment, the infusion pump was stopped, the bladder was emptied by fluid withdrawal via the infusion catheter and a single filling cystometrogram was performed at the same flow rate in order to determine changes in bladder capacity caused by the irritation protocol and subsequent intravenous or intraduodenal drug administration.
Data were analyzed by non-parametric ANOVA for repeated measures (Friedman Test) with Dunn's Multiple Comparison test. All comparisons were made from the last vehicle measurement (AA/Veh 3) or the lowest dose of drug. P<0.050 was considered significant.

SMILES	peak sodium current amplitude, fast (17 Hz) versus slow (0.2 Hz) stimulation [1]	concentration-response effect on TTX-R sodium current amplitude ([2]; bath application, cumulative concentrations, bladder afferent neurons)	IC50 ([2]; three bladder afferent neurons, 2-3 minute application, TTX 300 nM present, read-out: estimated IC50 for block of TTX-R sodium currents) [µM]	post-test: reversal of bladder capacity reduction ([3]; 300 mg/kg dose, rats)	effect on bladder capacity (reversal of acetic acid-induced reduction) [3]	effect on bladder capacity (reversal of acetic acid-induced reduction) ([3]; listed as ambroxol)
Nc1nnc(-c2cccc(Cl)c2Cl)c(N)n1 [Lamotrigine, 6-(2,3-Dichlorophenyl)-1,2,4-triazine-3,5-diamine]	decreased to a greater extent under fast stimulation conditions	–	–	–	–	–
Nc1c(Br)cc(Br)cc1CNC1CCC(O)CC1 (stereo not drawn) [Ambroxol]	–	concentration-dependent reversible block; also recorded: reversible, concentration-dependent reduction in current amplitude	~15	statistically significant reversal of bladder capacity reduction	capable of partially reversing the reduction in bladder capacity caused by acetic acid in a dose-dependent fashion; also recorded: dose-dependent and statistically significant reversal	dose-dependent, statistically significant increases in bladder capacity
